For orientation: IC50 means the concentration that gives 50% inhibition. Higher therefore signals weaker potency in that assay.

Data set [1] concerns mixed lymphocyte reaction (PBMC with allogeneic PBMC or Eppstein-Barr Virus-transformed human B cells as stimulator cells). Nature of the data set: Mixed lymphocyte reaction (MLR) assay. It counts as cell-based. The note with it: lowest concentration giving 50% suppression of the MLR; [3H]-thymidine.
Data set [2] has as its system production of IL-1 β by PBMC in response to stimulation by LPS. Nature of the data set: IL-1 β assay. The following applies: LPS 1 μg/ml, 72 hours, sandwich ELISA. It counts as cell-based, human. The protocol: Peripheral blood mononuclear cells (herein referred as PBMC), in response to stimulation by lipopolysaccharide (LPS), a gram-negative bacterial endotoxin, produce various […], in particular human IL-1 β. Inhibition of the activation of PBMC can therefore be measured by the level of suppression of the production of IL-1 β by PBMC in response to stimulation by LPS.
Such inhibition measurement was performed as follows: PBMC were isolated from heparinized peripheral blood by density gradient centrifugation over Lymphoprep (commercially available from Nycomed, Norway). LPS was then added to the PMBC suspension in complete medium (10^6 cells/ml) at a final concentration of 1 μg/ml. The pteridine derivative to be tested was added at different concentrations (0.1 μM, 1 μM and 10 μM) and the cells were incubated at 37° C. for 72 hours in 5% CO2. The supernatants were collected, then IL-1 β concentrations were measured with an anti-IL-1 β antibody in a sandwich ELISA. The calorimetric reading of the ELISA was measured by a Multiskan RC plate reader (commercially available from ThermoLabsystems, Finland) at 450 nm (reference wavelength: 690 nm). Data analysis was performed with Ascent software 2.6. (also from ThermoLabsystems, Finland): a standard curve (recombinant human IL-1 β) was drawn and the amount (pg/ml) of each sample on the standard curve was determined.
The % suppression of human IL-1 β by the pteridine derivatives (drugs) of this invention was calculated using the formula: [formula]
Background: An ELISA detects its analyte on a solid surface through an enzyme-linked reagent.

Data set [3] concerns production of TNF-α by PBMC in response to stimulation by LPS. Nature of the data set: TNF-α assay. The data set is classed as cell-based, human. The following applies: LPS 1 μg/ml, 72 hours, sandwich ELISA. The method, boiled down: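 Cells were LPS-stimulated (1 μg/ml final) peripheral blood mononuclear cells at 10^6/ml, exposed 72 h at 37 °C to 0.1, 1 or 10 μM test compound.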

The nature of data set [4]: Plasma levels after oral administration in healthy mice. The data set is classed as in vivo, C57BL/6 mice. The procedure:
Each group of 6 mice received the indicated dose at time point 0 and were bled at 1, 3 and 5 hours after compound administration. Quantification was performed using a calibration curve of known compound concentrations spiked in control serum.
The plasma levels of the tested compound (example 176) was evaluated in C57BL/6 mice 8-10 weeks old Harlan, weighing 18.6-22.0 g after oral administration of 20, 10, 5 and 1 mg/kg, respectively (n=6 per dose). The tested compound (example 176) was dissolved in water to the appropriate concentration in order to deliver a constant gavage volume of 10 μl/g of body weight. Blood was collected by eye bleeding with heparinized capillaries at 1, 3, and 5 hours after dosing from each animal. The plasma fraction was immediately separated by centrifugation for 2 minutes at 12,000 g and stored at −80° C. until analysis. Each plasma sample was spiked with internal standard followed by the addition of 4 volumes of methanol. The samples were kept for 30 minutes on ice prior to centrifugation (10 minutes at 12,000 g) in order to remove precipitated proteins. The supernatant was analyzed for the presence of the tested compound (example 176), using LC/MS/MS. As standard for the bio-analysis, the tested compound (example 176) was diluted stepwise; each dilution was added to control plasma; additionally spiked with internal standard, giving rise to standard curves from 200 to 40,000 nM.

`COc1ccc(-c2cnc3nc(N)nc(N4CCN(C(=O)COc5ccccc5)CC4)c3n2)cc1OC` [Example 17, 2-amino-4-[(N-phenoxyacetyl)-piperazin-1-yl]-6-(3,4-dimethoxy-phenyl)pteridine]: the IC50 in data set [1] turned out to be 0.0038 µM; in data set [2], 2.8 µM; in data set [3], 0.08 µM.

With `COc1ccc(-c2cnc3nc(N)nc(N4CCN(c5ccc(C)cc5)CC4)c3n2)cc1OC` [Example 176, 2-amino-6-(3,4-dimethoxyphenyl)-4-((4-methylphenyl)-piperazin-1-yl)pteridine], the IC50 in data set [1] was 0.3 µM; in data set [2], 4.9 µM; in data set [3], less than 0.01 µM. Also, in data set [4] (20 mg/kg oral), the “serum level 5 hours after administration compared with TNF-alpha assay IC50” value was “still above the IC50 value of the TNF-alpha assay”. Besides, in data set [4] (20 mg/kg oral, one hour after administration), the “circulating concentration (peak serum level)” value is given as “approximately 1 μM”. In addition, the “serum levels after 5 hours compared with TNF assay IC50” value in data set [4] (all lower doses (10, 5 and 1 mg/kg oral)) is given as “lower than the IC50 value in the TNF assay”. Also, the “peak serum levels with increasing doses” value in data set [4] (oral 1, 5, 10, 20 mg/kg, one hour after administration) is given as “dose-dependent increase”.

The values above are taken from patent publication US20070032477A1, “Pteridine derivatives useful for making pharmaceutical compositions” (priority 2003, published 2007).
